In this test the test system is choroidal neovascularization (CNV). Briefly: laser irradiation-induced choroidal neovascularization mouse model (CNV model). The test is classed as in vivo, male C57BL/6J mouse. The following applies: oral 20 mg/kg, once on laser-induction day then twice per day; compared to vehicle (0.5% hydroxypropylmethylcellulose) oral group; t-test p<0.05; FIG. 1. On the procedure:
As a result, VEGF is produced, and a new blood vessel is developed. Therefore, the CNV model is an experimental model showing the efficacy on a disease associated with ocular angiogenesis via VEGF.
Using (2S)-[4-(carboxymethyl)thiazol-2-ylthio]-N-{[4-(3,4-dichlorobenzyl)morpholin-2-yl]methyl}acetamide hydrobromide as a test compound, the following experiment was performed.
Laser was irradiated (6 spot irradiation) on one eye of male C57BL/6J mouse (7-week-old) to experimentally induce CNV.
The mouse was intramuscularly administered (1 mL/kg) with a ketamine hydrochloride/xylazine hydrochloride (1:1, v/v) mixed solution into the thigh and, after systemic anesthesia, mydriasis was induced with mydriatic eye drops, and laser irradiation (wavelength 532 nm, spot size 50 μm, irradiation time 0.1 second, laser output 120 mW) was performed at 6 points while avoiding thick capillary in the retina. […]
At 7 days from the laser irradiation, under systemic anesthesia by intramuscular administration (1 mL/kg) of a ketamine hydrochloride/xylazine hydrochloride (1:1, v/v) mixed solution into the thigh, a 4% FITC-dextran solution was administered at 0.5 mL/animal from the tail vein. […] Using a confocal microscope (OLYMPUS FV-1000D; magnification: ×20, number of pixels: 512 pixel×512 pixel), CNV site in a flat mount specimen was photographed, and measured using an image analysis software (NIH ImageJ). […]

The values below come from patent US10130634B2, “Therapeutic agent for ophthalmic disease” (MITSUBISHI TANABE PHARMA CORPORATION, priority 2013, dated 2018).

Molecules are shown by their SMILES.

As to `Br.O=C(O)Cc1csc(SCC(=O)NC[C@H]2CN(Cc3ccc(Cl)c(Cl)c3)CCO2)n1` [test compound, (2S)-[4-(carboxymethyl)thiazol-2-ylthio]-N-{[4-(3,4-dichlorobenzyl)morpholin-2-yl]methyl}acetamide hydrobromide], the “CNV area after 7 days from laser irradiation (CNV suppressive effect)” value is recorded as “significant CNV suppressive effect”.
